Laboratory results as given in ChEMBL document CHEMBL1138929, “Development of peptidic dopamine transporter inhibitors via aromatic modification-mediated conformational restriction” (J Med Chem, 2006).
Starred links: 1 amine or outer side, 2 acyl side, 3 side chain; linkers in the order of their positions; H or OH if unused. Non-standard residues stand in square brackets, D forms with d. Residues, ends and D or L forms follow the SMILES beside them. *: point of attachment. X1 = O=C([C@H](Cc1ccc(O)c(Cc2ccccc2)c1)N[*:1])[*:2]; Bpa = N[C@@H](Cc1ccc(C(=O)c2ccccc2)cc1)C(=O)O; Bip = N[C@@H](Cc1ccc(-c2ccccc2)cc1)C(=O)O; 1Nal = N[C@@H](Cc1cccc2ccccc12)C(=O)O; 2Nal = N[C@@H](Cc1ccc2ccccc2c1)C(=O)O; Bn = c1ccc(C*)cc1

Tests used:
[1] = target: T1, Sodium-dependent dopamine transporter (Rattus norvegicus, UniProt P23977); assay: Inhibition of rat DAT-mediated [3H]dopamine uptake in CHO cells; type: cell-based
Mus musculus [2] = assay: Effect on place preference in BALB/c mouse at 20 mg/kg, sc measured as pre and procondition time difference; type: functional; details: route subcutaneous
Mus musculus [3] = assay: Effect on cocaine-induced place preference in BALB/c mouse at 10 mg/kg, sc measured as pre and procondition time difference; type: functional; details: route subcutaneous
Mus musculus [4] = assay: Effect on 10 mg/kg cocaine-induced place preference in BALB/c mouse at 10 mg/kg, sc measured as pre and procondition time difference; type: functional
[5] = target: Sodium-dependent noradrenaline transporter (Rattus norvegicus) (UniProt P31652); assay: Inhibition of rat NET-mediated norepinephrine uptake in CHO cells; details: cho
Sodium-dependent noradrenaline transporter (Rattus norvegicus), sequence (P31652 whole entry, looked up): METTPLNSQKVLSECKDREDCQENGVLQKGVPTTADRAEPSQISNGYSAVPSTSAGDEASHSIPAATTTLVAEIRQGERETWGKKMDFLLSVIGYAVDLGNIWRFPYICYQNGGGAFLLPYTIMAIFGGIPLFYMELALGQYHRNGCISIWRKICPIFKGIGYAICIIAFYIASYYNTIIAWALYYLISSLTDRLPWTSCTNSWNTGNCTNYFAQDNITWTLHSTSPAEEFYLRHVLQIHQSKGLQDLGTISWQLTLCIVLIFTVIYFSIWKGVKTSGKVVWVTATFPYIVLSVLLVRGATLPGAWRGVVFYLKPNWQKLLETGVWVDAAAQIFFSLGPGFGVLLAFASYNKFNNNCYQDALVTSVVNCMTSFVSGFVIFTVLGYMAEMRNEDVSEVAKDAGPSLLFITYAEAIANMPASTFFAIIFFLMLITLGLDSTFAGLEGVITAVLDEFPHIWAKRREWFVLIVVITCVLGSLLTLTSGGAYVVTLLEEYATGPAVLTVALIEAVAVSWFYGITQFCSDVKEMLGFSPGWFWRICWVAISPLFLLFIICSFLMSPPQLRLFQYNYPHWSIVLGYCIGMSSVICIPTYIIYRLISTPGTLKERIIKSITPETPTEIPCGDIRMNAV

[6] = target: Sodium-dependent serotonin transporter (Rattus norvegicus, UniProt P31652); assay: Inhibition of rat SERT-mediated serotonin uptake in CHO cells; type: cell-based
Sodium-dependent serotonin transporter, sequence (P31652 whole entry): as the sequence (P31652 whole entry, looked up) above

[7] = target: Sodium- and chloride-dependent GABA transporter 1 (Mus musculus, UniProt P31648); assay: Inhibition of mouse GAT1-mediated gamma-aminobutyric acid uptake in CHO cells; type: cell-based
[8] = target: Sodium-dependent noradrenaline transporter, Rattus norvegicus; assay: Inhibition of rat NET-mediated norepinephrine uptake in CHO cells
[9] = target: T1, Sodium-dependent dopamine transporter; assay: Inhibition of [3H]WIN-35428 binding to rat DAT expressed in D8 cells; type: cell-based
Mus musculus [10] = assay: Effect on place preference in BALB/c mouse at 10 mg/kg measured as pre and procondition time difference; type: functional
[11] = substrate: CC(c1ccc(-c2ccc(C[C@H](N)C(=O)O)cc2)cc1)[C@H](N)C(=O)N[C@@H](Cc1ccc(O)cc1)C(=O)N[C@H](C(=O)N1CCC[C@H]1C(=O)N[C@H](C(=O)NCC(=O)O)[C@@H](C)OCc1ccccc1)[C@@H](C)O; details: Rattus norvegicus; D8; 600 nM
Description: Inhibition of rat DAT-mediated [3H]dopamine accumulation in D8 cells at 600 nM

[12] = substrate: CC(c1ccc(-c2ccc(C[C@H](N)C(=O)O)cc2)cc1)[C@H](N)C(=O)N[C@@H](Cc1ccc(O)cc1)C(=O)N[C@H](C(=O)N1CCC[C@H]1C(=O)N[C@H](C(=O)NCC(=O)O)[C@@H](C)OCc1ccccc1)[C@@H](C)O; details: Rattus norvegicus; D8; 250 nM
Description: Inhibition of rat DAT-mediated [3H]dopamine accumulation in D8 cells at 250 nM

C[C@@H](O)[C@H](NC(=O)[C@H](CCCCN)NC(=O)[C@@H]1CCCN1C(=O)[C@@H](NC(=O)[C@H](Cc1ccc(O)cc1)NC(=O)[C@H](Cc1ccccc1)NC(=O)[C@@H](N)Cc1ccccc1)[C@@H](C)O)C(=O)O (H-FFYTPKT-OH)
IC50 [1]: > 1000 µM

C[C@@H](O)[C@H](NC(=O)[C@H](Cc1ccc(O)cc1)NC(=O)[C@@H](N)Cc1cccc2ccccc12)C(=O)N1CCC[C@H]1C(=O)N[C@@H](CCCCN)C(=O)N[C@H](C(=O)NCC(=O)O)[C@@H](C)OCc1ccccc1 (H-[1Nal]YTPKT(Bn)G-OH)
IC50 [1]: 199 µM

C[C@@H](O)[C@H](NC(=O)[C@H](Cc1ccc(O)cc1)NC(=O)[C@@H](N)Cc1ccc2ccccc2c1)C(=O)N1CCC[C@H]1C(=O)N[C@@H](CCCCN)C(=O)N[C@H](C(=O)NCC(=O)O)[C@@H](C)OCc1ccccc1 (H-[2Nal]YTPKT(Bn)G-OH)
IC50 [1]: 184 µM

C[C@H](NC(=O)[C@@H](N)Cc1ccc(-c2ccccc2)cc1)C(=O)N[C@H](C(=O)N1CCC[C@H]1C(=O)N[C@@H](CCCCN)C(=O)N[C@H](C(=O)NCC(=O)O)[C@@H](C)OCc1ccccc1)[C@@H](C)O (H-[Bip]ATPKT(Bn)G-OH)
IC50 ([1]; cho): 173 µM

C[C@H](NC(=O)[C@H](Cc1ccc(O)cc1)NC(=O)[C@@H](N)Cc1ccc(-c2ccccc2)cc1)C(=O)N1CCC[C@H]1C(=O)N[C@@H](CCCCN)C(=O)N[C@H](C(=O)NCC(=O)O)[C@@H](C)OCc1ccccc1 (H-[Bip]YAPKT(Bn)G-OH)
IC50 ([1]; cho): 11 µM

C[C@@H](O)[C@H](NC(=O)[C@H](CCCCN)NC(=O)[C@@H]1CCCN1C(=O)[C@@H](NC(=O)[C@H](Cc1ccc(O)cc1)NC(=O)[C@@H](N)Cc1ccc(-c2ccccc2)cc1)[C@@H](C)OCc1ccccc1)C(=O)NCC(=O)O (H-[Bip]YT(Bn)PKTG-OH)
IC50 ([1]; cho): 20 µM

C[C@H](NC(=O)[C@@H](NC(=O)[C@H](Cc1ccc(O)cc1)NC(=O)[C@@H](N)Cc1ccc(-c2ccccc2)cc1)[C@@H](C)O)C(=O)N[C@@H](CCCCN)C(=O)N[C@H](C(=O)NCC(=O)O)[C@@H](C)OCc1ccccc1 (H-[Bip]YTAKT(Bn)G-OH)
IC50 ([1]; cho): > 1000 µM

C[C@H](NC(=O)[C@@H](NC(=O)[C@H](Cc1ccc(O)cc1)NC(=O)[C@@H](N)Cc1ccc(-c2ccccc2)cc1)[C@@H](C)O)C(=O)N[C@H](C(=O)NCC(=O)O)[C@@H](C)OCc1ccccc1 (H-[Bip]YTAT(Bn)G-OH) [listing 1 of 2 here]
IC50 ([1]; cho): > 1000 µM

C[C@H](NC(=O)[C@@H](NC(=O)[C@H](Cc1ccc(O)cc1)NC(=O)[C@@H](N)Cc1ccc(-c2ccccc2)cc1)[C@@H](C)O)C(=O)N[C@H](C(=O)NCC(=O)O)[C@@H](C)OCc1ccccc1 (H-[Bip]YTAT(Bn)G-OH) [listing 2 of 2 here]
Activity (Mus musculus [2]): -14 s
Activity (Mus musculus [3]): 209 s
Activity (Mus musculus [4]): 200 s

C[C@H](NC(=O)[C@@H]1CCCN1C(=O)[C@@H](NC(=O)[C@H](Cc1ccc(O)cc1)NC(=O)[C@@H](N)Cc1ccc(-c2ccccc2)cc1)[C@@H](C)O)C(=O)N[C@H](C(=O)NCC(=O)O)[C@@H](C)OCc1ccccc1 (H-[Bip]YTPAT(Bn)G-OH)
IC50 ([1]; cho): 1.7 µM

C[C@@H](O)[C@H](NC(=O)[C@H](Cc1ccc(O)cc1)NC(=O)[C@@H](N)Cc1ccc(-c2ccccc2)cc1)C(=O)N1CCC[C@H]1C(=O)N[C@@H](CCCCN)C(=O)N[C@H](C(=O)NCC(=O)O)[C@@H](C)OCc1ccccc1 (H-[Bip]YTPKT(Bn)G-OH)
IC50 ([1]; cho): 1.8 µM

C[C@@H](O)[C@H](NC(=O)[C@H](CCCCN)NC(=O)[C@@H]1CCCN1C(=O)[C@@H](NC(=O)[C@H](Cc1ccc(O)cc1)NC(=O)[C@@H](N)Cc1ccc(-c2ccccc2)cc1)[C@@H](C)O)C(=O)O (H-[Bip]YTPKT-OH)
IC50 [5]: > 1000 µM
IC50 ([6]; cho): > 1000 µM
IC50 ([7]; cho): > 1000 µM
IC50 ([1]; cho): 19 µM

C[C@@H](O)[C@H](NC(=O)[C@H](Cc1ccc(O)cc1)NC(=O)[C@@H](N)Cc1ccc(-c2ccccc2)cc1)C(=O)N1CCC[C@H]1C(=O)N[C@H](C(=O)NCC(=O)O)[C@@H](C)OCc1ccccc1 (H-[Bip]YTPT(Bn)G-OH) [listing 1 of 2 here]
IC50 [8]: 90 µM
IC50 [6]: 110 µM
IC50 [9]: 0.494 µM
IC50 [7]: > 1000 µM
IC50 [1]: 0.3 µM

C[C@@H](O)[C@H](NC(=O)[C@H](Cc1ccc(O)cc1)NC(=O)[C@@H](N)Cc1ccc(-c2ccccc2)cc1)C(=O)N1CCC[C@H]1C(=O)N[C@H](C(=O)NCC(=O)O)[C@@H](C)OCc1ccccc1 (H-[Bip]YTPT(Bn)G-OH) [listing 2 of 2 here]
Activity (Mus musculus [2]): -16 s
Activity (Mus musculus [3]): 61 s
Activity (Mus musculus [4]): 78 s

C[C@@H](O)[C@H](NC(=O)[C@H](CCCCN)NC(=O)[C@@H]1CCCN1C(=O)[C@@H](NC(=O)[C@H](Cc1ccc(O)c(Cc2ccccc2)c1)NC(=O)[C@@H](N)Cc1ccc(-c2ccccc2)cc1)[C@@H](C)O)C(=O)O (H-[Bip][X1]TPKT-OH)
IC50 ([1]; cho): 10 µM

C[C@@H](O)[C@H](NC(=O)[C@H](Cc1ccc(O)cc1)NC(=O)[C@@H](N)Cc1ccc(C(=O)c2ccccc2)cc1)C(=O)N1CCC[C@H]1C(=O)N[C@@H](CCCCN)C(=O)N[C@H](C(=O)NCC(=O)O)[C@@H](C)OCc1ccccc1 (H-[Bpa]YTPKT(Bn)G-OH)
IC50 [1]: 239 µM

COC(=O)[C@H]1[C@@H](OC(=O)c2ccccc2)C[C@@H]2CC[C@H]1N2C [COCAINE]
Activity (Mus musculus [10]): 194 s

B1: Sodium-dependent dopamine transporter (Rattus norvegicus), P23977 (protein)
chain: MSKSKCSVGPMSSVVAPAKESNAVGPREVELILVKEQNGVQLTNSTLINPPQTPVEAQERETWSKKIDFLLSVIGFAVDLANVWRFPYLCYKNGGGAFLVPYLLFMVIAGMPLFYMELALGQFNREGAAGVWKICPVLKGVGFTVILISFYVGFFYNVIIAWALHYFFSSFTMDLPWIHCNNTWNSPNCSDAHASNSSDGLGLNDTFGTTPAAEYFERGVLHLHQSRGIDDLGPPRWQLTACLVLVIVLLYFSLWKGVKTSGKVVWITATMPYVVLTALLLRGVTLPGAMDGIRAYLSVDFYRLCEASVWIDAATQVCFSLGVGFGVLIAFSSYNKFTNNCYRDAIITTSINSLTSFSSGFVVFSFLGYMAQKHNVPIRDVATDGPGLIFIIYPEAIATLPLSSAWAAVFFLMLLTLGIDSAMGGMESVITGLVDEFQLLHRHRELFTLGIVLATFLLSLFCVTNGGIYVFTLLDHFAAGTSILFGVLIEAIGVAWFYGVQQFSDDIKQMTGQRPNLYWRLCWKLVSPCFLLYVVVVSIVTFRPPHYGAYIFPDWANALGWIIATSSMAMVPIYATYKFCSLPGSFREKLAYAITPEKDHQLVDRGEVRQFTLRHWLLL
Km [11]: 3.6 µM
Km [12]: 2.42 µM
